# In publication PMC12670164, “In vitro and clinical data demonstrate negligible risk of drug–drug interactions with opelconazole, a novel inhaled antifungal agent” (Journal of Antimicrobial Chemotherapy, 2025):
# What was measured:
# Assay in all cases: Transporter inhibition
# Type in all cases: in vitro ADME
# OAT1 = target: T1, OAT1 (Homo sapiens, UniProt Q4U2R8); settings: 0.5 and 5 μM tested
# T1 construct: expressed in transfected cells
# T1 sequence (Q4U2R8 1-563): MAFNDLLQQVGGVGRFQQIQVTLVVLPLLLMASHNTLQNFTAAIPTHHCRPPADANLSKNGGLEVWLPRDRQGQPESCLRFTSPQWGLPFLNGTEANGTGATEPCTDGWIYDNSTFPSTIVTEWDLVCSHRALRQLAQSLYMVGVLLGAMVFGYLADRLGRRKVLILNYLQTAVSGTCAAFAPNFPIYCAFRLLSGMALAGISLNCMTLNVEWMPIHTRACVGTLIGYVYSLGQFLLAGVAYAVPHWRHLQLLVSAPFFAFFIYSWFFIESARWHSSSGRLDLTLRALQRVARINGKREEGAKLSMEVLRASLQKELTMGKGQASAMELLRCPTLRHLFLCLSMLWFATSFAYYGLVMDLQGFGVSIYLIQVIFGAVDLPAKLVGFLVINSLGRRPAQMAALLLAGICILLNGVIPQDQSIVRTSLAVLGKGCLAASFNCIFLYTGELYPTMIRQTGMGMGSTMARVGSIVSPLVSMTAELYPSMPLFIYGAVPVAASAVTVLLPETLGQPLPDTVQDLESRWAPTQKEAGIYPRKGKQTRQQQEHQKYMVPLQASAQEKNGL
# Method: (§1) Human transporter protein interactions with opelconazole as a potential substrate and/or inhibitor were assessed for the following key carrier transporters: organic anion transporters, OAT1 and OAT3; organic cation transporters, OCT1 and OCT2; OATP1B1 and OATP1B3; multidrug and toxin extrusion, MATE-1 and MATE2-K; key ATP-binding cassette (ABC) transporters including P-gp, breast cancer resistance protein (BCRP) and bile salt export pump (BSEP). Two concentrations of opelconazole, 0.5 and 5 μM, were tested using MDCKII cells, human embryonic kidney 293 cells and BSEP-transfected sf9 membrane vesicles and then analysed by LC-tandem MS to determine transporter inhibition and whether opelconazole was a transporter substrate. The viability of experimental test systems was confirmed with controls and known probe substrates and probe inhibitors.
# P-gp = target: T2, P-gp (Homo sapiens, UniProt P08183)
# T2 construct: expressed in transfected cells
# Method: as §1
# OCT2 = target: T3, OCT2 (Homo sapiens, UniProt O15244)
# T3 construct: expressed in transfected cells
# T3 sequence (O15244 1-555): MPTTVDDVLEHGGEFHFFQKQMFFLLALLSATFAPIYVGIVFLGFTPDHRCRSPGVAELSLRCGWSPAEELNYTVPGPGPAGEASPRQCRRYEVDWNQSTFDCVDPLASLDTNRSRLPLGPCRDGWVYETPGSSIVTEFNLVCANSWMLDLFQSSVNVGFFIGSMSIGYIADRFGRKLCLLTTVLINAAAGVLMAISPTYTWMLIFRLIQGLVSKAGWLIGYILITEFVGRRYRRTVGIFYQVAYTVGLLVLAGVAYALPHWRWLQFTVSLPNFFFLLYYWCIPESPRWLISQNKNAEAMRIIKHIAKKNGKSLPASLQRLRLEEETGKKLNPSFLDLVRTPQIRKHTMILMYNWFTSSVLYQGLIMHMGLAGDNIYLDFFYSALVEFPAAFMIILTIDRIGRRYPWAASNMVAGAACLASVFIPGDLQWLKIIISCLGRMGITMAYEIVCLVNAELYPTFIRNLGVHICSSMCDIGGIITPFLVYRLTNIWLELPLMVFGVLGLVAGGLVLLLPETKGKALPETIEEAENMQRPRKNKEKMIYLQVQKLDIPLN
# Method: as §1
# BCRP = target: T4, BCRP (Homo sapiens, UniProt Q9UNQ0)
# T4 construct: expressed in transfected cells
# T4 sequence (Q9UNQ0 1-655): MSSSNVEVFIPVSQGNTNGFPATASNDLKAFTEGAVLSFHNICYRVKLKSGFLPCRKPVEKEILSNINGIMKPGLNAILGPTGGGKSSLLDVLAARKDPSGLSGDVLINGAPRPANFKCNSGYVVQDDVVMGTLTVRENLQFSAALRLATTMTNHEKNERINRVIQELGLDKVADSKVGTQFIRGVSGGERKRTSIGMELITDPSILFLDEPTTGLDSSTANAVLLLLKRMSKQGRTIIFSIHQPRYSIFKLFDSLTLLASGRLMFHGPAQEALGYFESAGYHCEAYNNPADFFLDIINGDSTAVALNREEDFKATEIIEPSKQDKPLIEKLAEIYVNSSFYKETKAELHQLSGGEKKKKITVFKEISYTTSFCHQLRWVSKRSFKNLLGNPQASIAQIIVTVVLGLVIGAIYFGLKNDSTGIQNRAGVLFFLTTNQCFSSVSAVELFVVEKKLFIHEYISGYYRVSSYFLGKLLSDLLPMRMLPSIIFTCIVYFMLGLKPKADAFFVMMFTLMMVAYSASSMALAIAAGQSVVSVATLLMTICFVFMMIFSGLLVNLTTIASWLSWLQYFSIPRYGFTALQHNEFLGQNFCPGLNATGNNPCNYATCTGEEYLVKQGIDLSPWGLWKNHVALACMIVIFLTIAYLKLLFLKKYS
# Method: as §1
# BSEP = target: T5, BSEP (Homo sapiens, UniProt O95342); settings: 0.5 and 5 μM tested
# T5 construct: expressed in transfected cells; host or cells: Sf9 membrane vesicles
# Method: as §1
# MATE2-K = target: T6, MATE2-K (Homo sapiens, UniProt Q86VL8)
# T6 construct: expressed in transfected cells
# Method: as §1
# OAT3 = target: T7, OAT3 (Homo sapiens, UniProt Q8TCC7); settings: 0.5 and 5 μM tested
# T7 construct: expressed in transfected cells
# T7 sequence (Q8TCC7 1-542): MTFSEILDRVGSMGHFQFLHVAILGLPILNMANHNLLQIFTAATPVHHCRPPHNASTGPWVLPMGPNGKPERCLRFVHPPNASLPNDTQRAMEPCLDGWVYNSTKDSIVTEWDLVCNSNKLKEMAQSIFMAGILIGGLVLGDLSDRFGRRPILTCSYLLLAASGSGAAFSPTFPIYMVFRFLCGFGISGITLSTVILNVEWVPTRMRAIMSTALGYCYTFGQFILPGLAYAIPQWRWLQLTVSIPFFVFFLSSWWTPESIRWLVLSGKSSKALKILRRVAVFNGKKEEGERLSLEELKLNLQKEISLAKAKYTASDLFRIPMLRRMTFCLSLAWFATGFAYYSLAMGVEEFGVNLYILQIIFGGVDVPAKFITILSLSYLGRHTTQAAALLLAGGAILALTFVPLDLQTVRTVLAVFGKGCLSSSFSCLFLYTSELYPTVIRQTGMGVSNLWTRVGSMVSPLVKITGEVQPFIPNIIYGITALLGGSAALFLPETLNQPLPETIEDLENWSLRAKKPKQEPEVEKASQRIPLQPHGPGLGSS
# Method: as §1
# T2 sequence (P08183 whole entry): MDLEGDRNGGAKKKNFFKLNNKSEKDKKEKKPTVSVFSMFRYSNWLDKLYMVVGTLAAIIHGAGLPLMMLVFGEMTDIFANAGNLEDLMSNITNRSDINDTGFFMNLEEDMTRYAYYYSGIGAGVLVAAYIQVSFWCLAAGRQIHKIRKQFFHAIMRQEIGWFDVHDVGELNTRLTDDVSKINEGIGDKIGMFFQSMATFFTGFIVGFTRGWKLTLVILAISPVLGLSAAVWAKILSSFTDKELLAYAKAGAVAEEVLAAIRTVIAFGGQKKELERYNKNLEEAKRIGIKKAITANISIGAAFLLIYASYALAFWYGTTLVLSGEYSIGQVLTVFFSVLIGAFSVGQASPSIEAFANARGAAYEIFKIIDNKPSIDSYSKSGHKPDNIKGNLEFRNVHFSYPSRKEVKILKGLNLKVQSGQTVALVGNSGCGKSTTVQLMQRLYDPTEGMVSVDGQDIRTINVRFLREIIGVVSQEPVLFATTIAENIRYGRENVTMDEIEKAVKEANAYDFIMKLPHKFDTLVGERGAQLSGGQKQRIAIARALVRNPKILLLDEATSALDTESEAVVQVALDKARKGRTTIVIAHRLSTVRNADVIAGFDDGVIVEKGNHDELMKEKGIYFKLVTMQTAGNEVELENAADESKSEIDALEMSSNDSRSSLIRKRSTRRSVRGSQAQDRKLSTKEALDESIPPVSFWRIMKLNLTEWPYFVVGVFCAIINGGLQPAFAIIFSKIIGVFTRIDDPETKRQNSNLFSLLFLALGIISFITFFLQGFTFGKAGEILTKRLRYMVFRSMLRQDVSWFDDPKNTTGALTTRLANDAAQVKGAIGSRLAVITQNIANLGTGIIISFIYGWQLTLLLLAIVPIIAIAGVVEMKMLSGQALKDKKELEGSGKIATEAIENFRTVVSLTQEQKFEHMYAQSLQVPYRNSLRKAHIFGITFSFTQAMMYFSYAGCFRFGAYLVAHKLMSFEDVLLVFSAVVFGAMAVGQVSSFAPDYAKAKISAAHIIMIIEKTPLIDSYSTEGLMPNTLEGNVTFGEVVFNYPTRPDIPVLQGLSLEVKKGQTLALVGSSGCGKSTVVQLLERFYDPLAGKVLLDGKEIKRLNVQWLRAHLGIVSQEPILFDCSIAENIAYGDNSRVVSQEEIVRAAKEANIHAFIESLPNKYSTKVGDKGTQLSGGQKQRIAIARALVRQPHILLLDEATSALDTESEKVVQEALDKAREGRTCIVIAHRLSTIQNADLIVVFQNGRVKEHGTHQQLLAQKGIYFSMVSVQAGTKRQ
# T6 sequence (Q86VL8 1-566 isoform Q86VL8-3): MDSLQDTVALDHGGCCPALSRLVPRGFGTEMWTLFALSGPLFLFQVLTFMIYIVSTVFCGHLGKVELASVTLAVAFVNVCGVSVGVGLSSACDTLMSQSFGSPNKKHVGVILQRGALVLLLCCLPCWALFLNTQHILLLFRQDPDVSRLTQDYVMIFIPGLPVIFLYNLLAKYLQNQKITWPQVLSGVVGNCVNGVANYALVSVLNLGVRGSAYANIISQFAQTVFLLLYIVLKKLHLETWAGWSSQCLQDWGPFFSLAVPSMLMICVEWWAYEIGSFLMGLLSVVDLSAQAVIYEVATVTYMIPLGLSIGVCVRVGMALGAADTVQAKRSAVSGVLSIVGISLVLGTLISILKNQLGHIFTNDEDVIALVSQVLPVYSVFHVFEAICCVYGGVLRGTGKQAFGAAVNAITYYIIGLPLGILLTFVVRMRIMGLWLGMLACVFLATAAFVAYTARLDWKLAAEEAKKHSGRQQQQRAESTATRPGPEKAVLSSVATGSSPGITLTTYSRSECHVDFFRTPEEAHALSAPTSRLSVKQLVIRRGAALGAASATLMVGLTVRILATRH
# T5 sequence (O95342 whole entry): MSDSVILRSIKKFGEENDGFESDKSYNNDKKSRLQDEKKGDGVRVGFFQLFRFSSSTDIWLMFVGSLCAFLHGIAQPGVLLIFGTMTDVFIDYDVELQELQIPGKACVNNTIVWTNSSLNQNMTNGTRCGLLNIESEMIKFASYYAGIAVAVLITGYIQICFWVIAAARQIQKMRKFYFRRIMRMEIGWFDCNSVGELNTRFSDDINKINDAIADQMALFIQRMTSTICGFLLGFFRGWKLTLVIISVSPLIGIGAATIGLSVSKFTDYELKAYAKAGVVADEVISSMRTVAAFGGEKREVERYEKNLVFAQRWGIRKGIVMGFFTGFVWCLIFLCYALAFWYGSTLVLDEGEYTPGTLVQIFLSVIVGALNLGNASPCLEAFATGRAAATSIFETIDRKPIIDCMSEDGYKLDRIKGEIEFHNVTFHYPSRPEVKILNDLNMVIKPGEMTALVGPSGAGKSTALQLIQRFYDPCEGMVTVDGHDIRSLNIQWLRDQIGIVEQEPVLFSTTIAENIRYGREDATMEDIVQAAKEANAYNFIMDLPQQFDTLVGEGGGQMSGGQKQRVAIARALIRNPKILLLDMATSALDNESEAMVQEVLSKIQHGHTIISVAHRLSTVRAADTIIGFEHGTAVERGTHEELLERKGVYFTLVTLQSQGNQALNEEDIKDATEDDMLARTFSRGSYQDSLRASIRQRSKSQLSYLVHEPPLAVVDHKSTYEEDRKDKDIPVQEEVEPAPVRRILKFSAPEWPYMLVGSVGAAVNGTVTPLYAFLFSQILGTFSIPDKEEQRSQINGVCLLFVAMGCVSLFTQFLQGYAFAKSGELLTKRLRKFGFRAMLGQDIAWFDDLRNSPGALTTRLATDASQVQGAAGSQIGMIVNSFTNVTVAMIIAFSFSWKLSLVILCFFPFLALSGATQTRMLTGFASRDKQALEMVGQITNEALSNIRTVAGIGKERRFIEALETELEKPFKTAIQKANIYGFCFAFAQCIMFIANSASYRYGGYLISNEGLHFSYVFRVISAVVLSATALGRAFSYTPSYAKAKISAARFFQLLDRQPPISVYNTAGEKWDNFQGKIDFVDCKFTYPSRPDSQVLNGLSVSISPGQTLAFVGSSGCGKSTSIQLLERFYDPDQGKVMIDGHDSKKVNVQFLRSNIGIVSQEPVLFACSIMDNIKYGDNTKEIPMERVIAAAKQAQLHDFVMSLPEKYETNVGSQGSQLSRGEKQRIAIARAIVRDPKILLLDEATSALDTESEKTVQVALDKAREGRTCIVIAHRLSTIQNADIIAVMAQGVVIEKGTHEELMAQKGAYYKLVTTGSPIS
compound,measurement,setting,value
Cc1cc(N2CCN(c3ccc(C(=O)Nc4ccc(F)cc4)cc3)CC2)ccc1OC[C@@H]1CO[C@@](Cn2cncn2)(c2ccc(F)cc2F)C1 [opelconazole],inhibitory interaction with OAT1,OAT1,negligible inhibitory interactions
same,inhibitory interaction with P-gp,P-gp; 0.5 μM opelconazole,negligible inhibitory interactions
same,inhibition of P-gp relative to solvent control,P-gp; 5 μM opelconazole,52%
same,inhibitory interaction with OCT2,OCT2; 0.5 μM opelconazole,negligible inhibitory interactions
same,inhibition of OCT2 relative to solvent control,OCT2; 5 μM opelconazole,39%
same,inhibition of BCRP relative to solvent control,BCRP; 0.5 μM opelconazole,52%
same,inhibition of BCRP relative to solvent control,BCRP; 5 μM opelconazole,56%
same,inhibitory interaction with BSEP,BSEP,negligible inhibitory interactions
same,inhibition of MATE2-K relative to solvent control,MATE2-K; 0.5 μM opelconazole,19%
same,inhibition of MATE2-K relative to solvent control,MATE2-K; 5 μM opelconazole,52%
same,inhibitory interaction with OAT3,OAT3,negligible inhibitory interactions
